These molecules were tested on sterol synthesis (assay: CSI screen: incorporation of 14C-acetate into nonsaponifiable lipid by rat liver homogenate (inhibition of cholesterol biosynthesis)). Conditions: 50% inhibition of sterol synthesis over a one-hour period, livers of rats fed 5% cholestyramine chow for four days.
Format: biochemical
Method: The ability of compounds of the present invention to inhibit the biosynthesis of cholesterol was measured by a method (designated CSI screen) which utilizes the procedure described by R. E. Dugan et al, Archiv. Biochem. Biophys., (1972), 152, 21-27. In this method, the level of HMG-CoA enzyme activity in standard laboratory rats is increased by feeding the rats a chow diet containing 5% cholestyramine for four days, after which the rats are sacrificed.
The rat livers are homogenized, and the incorporation of 14C-acetate into nonsaponifiable lipid by the rat liver homogenate is measured. The micromolar concentration of compound required for 50% inhibition of sterol synthesis over a one-hour period is measured, and expressed as an IC50 value.
The activities of several representative examples of compounds in accordance with the present invention appear in Table 1.

| IC50 [nM] | SMILES |
| --- | --- |
| 130 | Cc1nc(C)c(/C=C/[C@@H]2C[C@@H](O)CC(=O)O2)c(-c2ccc(F)cc2)n1 (relative stereo) [[4α, 6β(E)]-6-[2-[4-(4-Fluorophenyl)-2,6-dimethyl-5-pyrimidinyl]ethenyl]tetrahydro-4-hydroxy-2H-pyran-2-one] |
| 150 | Cc1nc(-c2ccccc2)nc(-c2ccc(F)cc2)c1/C=C/[C@@H]1C[C@@H](O)CC(=O)O1 (relative stereo) [[4α, 6β(E)]-6-[2-[4-(4-Fluorophenyl)-6-methyl-2-phenyl-5-pyrimidinyl]ethenyl]tetrahydro-4-hydroxy-2H-pyran-2-one] |
| 220 | Cc1cc(C)cc(-c2nc(-c3ccccc3)nc(C)c2/C=C/[C@@H]2C[C@@H](O)CC(=O)O2)c1 (relative stereo) [[4α, 6β(E)]-6-[2-[4-(3,5-Dimethylphenyl)-6-methyl-2-phenyl-5-pyrimidinyl]ethenyl]-tetrahydro-4-hydroxy-2H-pyran-2-one] |

From patent US4929620A, “5-pyrimidinyl-3,5-dihydroxy-6-heptenoic acid compounds useful as inhibitors of cholesterol biosynthesis” (Warner-Lambert Company, priority 1989, dated 1990)
